In one data set the test system is K562 cells. Kind of data set: Cell Titer Glo 2.0 cell viability (toxicity) assay, K562. The conditions noted are these: 500 cells/well, 72 hours. Background: ATP-based viability assays read luminescence as a measure of living cells.
Another data set has as its system SMN2 mRNA. The data set can be described thus: RT-qPCR splicing assay, SMN2 mRNA. The format is cell-based, human. The conditions noted are these: Homo sapiens, canonical junction qPCR panel, Table 4; read-out: SMN2 IC50 (decrease in CJ mRNA levels). The method in brief: (§1)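 A673 or K562 cells treated 24 h at 37 °C with 11-point 3-fold dilutions (top final 10 uM, DMSO ≤0.25%). Lysates analysed by one-step RT-qPCR for canonical (CJ) and alternative-exon (AJ) junctions, normalized to GAPDH, GUSB or PPIA. ΔΔCt vs DMSO, RQ = 2^(−ΔΔCt), expressed as percentage response.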
Background: Quantitative PCR measures a nucleic acid by following its amplification.

Another data set deals with MYB. The data set can be described thus: HiBiT protein abundance assay, MYB (K562 HiBiT knock-in). It is filed as cell-based, human. The conditions noted are these: HiBiT knock-in K562 cells, 24 hours, top dose 10 μM. The procedure, abridged: (§2)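 Luminescence readout: Nano-Glo HiBiT lytic detection after 24 h compound exposure of K562 HiBiT knock-in cells, 10000 cells/well. Dosing 10-pt, 3-fold, top 10 μM final. % response vs untreated parental K562 and DMSO controls; 4PL fit, IC50 = concentration giving 50% protein abundance.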
Background: The HiBiT peptide binds its large partner to form an active luciferase.

The test system of a further data set is HTT. The data set can be described thus: HiBiT protein abundance assay, HTT (K562 HiBiT knock-in). The format is cell-based, human. The following applies: HiBiT knock-in K562 cells, 24 hours, top dose 10 μM. The procedure, abridged: as §2
Another data set relates to Target C. Kind of data set: HiBiT protein abundance assay, Target C (K562 HiBiT knock-in). The following applies: HiBiT knock-in K562 cells, 24 hours, top dose 10 μM. The format is cell-based, human. The procedure, abridged:
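K562 HiBiT knock-in cells (10000/well) were treated 24 h at 37° C with a 10-point 3-fold dilution series (top 10 μM final, ≤0.25% DMSO). HiBiT luminescence was read after lytic LgBiT detection. Percent response used unmodified K562 and DMSO-treated knock-in controls, and IC50 came from a four-parameter fit at 50% of untreated.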

For another data set, the system named is HTT mRNA. The data set can be described thus: RT-qPCR splicing assay, HTT mRNA canonical (CJ) and alternative (AJ) junction. The format is cell-based, human. The conditions noted are these: Homo sapiens; for AC50: HTT alternative junction mRNA, read-out: HTT AJ (increase in AJ mRNA, AC50). The procedure, abridged:
as §1

For the next data set, the system named is MYB mRNA. Kind of data set: RT-qPCR splicing assay, MYB mRNA canonical (CJ) and alternative (AJ) junction. The format is cell-based, human. The following applies: Homo sapiens; for AC50: MYB alternative junction mRNA, read-out: MYB AJ (increase in AJ mRNA, AC50). The procedure, abridged:
as §1

Where [1] appears, read: HTT canonical junction mRNA, RT-qPCR, read-out: HTT CJ (decrease in CJ mRNA levels, IC50).
Where [2] appears, read: canonical junction qPCR panel, Table 4, read-out: HTT IC50 (decrease in CJ mRNA levels).
Where [3] appears, read: MYB canonical junction mRNA, RT-qPCR, read-out: MYB CJ (decrease in CJ mRNA levels, IC50).
Where [4] appears, read: canonical junction qPCR panel, Table 4, read-out: MYB IC50 (decrease in CJ mRNA levels).

Like-named read-outs stand apart in the source and are kept apart here. Where only a bound is given, the exact number is not on record here.

Experimental findings from patent publication US20250092065A1, “2-(INDAZOL-5-YL)-6-(PIPERIDIN-4-YL)-1,7-NAPHTHYRIDINE DERIVATIVES AND RELATED COMPOUNDS AS MODULATORS FOR SPLICING NUCLEIC ACIDS AND FOR THE TREATMENT OF PROLIFERATIVE DISEASES” (REMIX THERAPEUTICS INC., priority 2022, published 2025) are described below.

What is called IC50 is the concentration needed to halve the response being measured. What is called AC50 is the concentration giving half of the maximal activity seen.

For the compound `CCN1CCC(c2ccc3nc(-c4cc5cn(C)nc5cc4O)ccc3n2)CC1` [Compound 138], the “Effect of Exemplary Compounds on Cell Viability, K562” value (“Effect of Exemplary Compounds” below) in the data set with K562 cells is reported as “B (B represents 100-1000 nM)”. For the same compound, the IC50 in the data set on SMN2 mRNA is less than 0.1 µM; in the data set with MYB it was 0.1 to 1 µM; in the data set with HTT, 0.1 to 1 µM; in the data set on Target C, 0.1 to 1 µM; in the data set on HTT mRNA (setting [1]), 0.1 to 1 µM; in the data set with HTT mRNA (setting [2]) it was 0.1 to 1 µM. In addition, the IC50 in the data set on MYB mRNA (setting [3]) and in the data set on MYB mRNA (setting [4]) was 0.1 to 1 µM in each case. Further, the AC50 with HTT mRNA (RT-qPCR) and in the data set with MYB mRNA (RT-qPCR) was 0.1 to 1 µM throughout.
Turning to `C[C@H]1C[C@H](c2ccc3nc(-c4cc5cn(C)nc5cc4O)ccc3n2)CCN1` [Compound 139], the “Effect of Exemplary Compounds” value in the data set on K562 cells is “B (B represents 100-1000 nM)”. Besides, the concentration for half-maximal inhibition (IC50) in the data set on SMN2 mRNA is less than 0.1 µM; with MYB, 0.1 to 1 µM; in the data set with HTT it was 0.1 to 1 µM; in the data set on Target C, less than 0.1 µM; in the data set with HTT mRNA (setting [1]) it was less than 0.1 µM; in the data set with HTT mRNA (setting [2]), less than 0.1 µM. Also, the IC50 with MYB mRNA (setting [3]) and with MYB mRNA (setting [4]) was less than 0.1 µM each time. Moreover, the half-maximal activity concentration (AC50) in the data set with HTT mRNA (RT-qPCR) and with MYB mRNA (RT-qPCR) was less than 0.1 µM each time.
Take `C[C@H]1C[C@@H](c2ccc3nc(-c4cc5cn(C)nc5cc4O)ccc3n2)CCN1` [Compound 140]: in the data set on K562 cells, the “Effect of Exemplary Compounds” value is given as “B (B represents 100-1000 nM)”. Besides, the 50% inhibitory concentration (IC50) is less than 0.1 µM in the data set with SMN2 mRNA; 0.1 to 1 µM with MYB; 0.1 to 1 µM in the data set with HTT; 0.1 to 1 µM with Target C; less than 0.1 µM with HTT mRNA (setting [1]); less than 0.1 µM in the data set on HTT mRNA (setting [2]). In addition, the IC50 in the data set on MYB mRNA (setting [3]) and in the data set on MYB mRNA (setting [4]) was less than 0.1 µM in each case. The half-maximal activity concentration (AC50) with HTT mRNA (RT-qPCR) and with MYB mRNA (RT-qPCR) was 0.1 to 1 µM each time.
On to `Cn1cc2c(O)c(-c3cc4ccc(C5CCNCC5)nc4cn3)cc(Br)c2n1` [Compound 141], for which the “Effect of Exemplary Compounds” value in the data set on K562 cells is listed as “C (C represents 1000-9999 nM)”. The IC50 fell in the range of 0.1 to 1 µM in the data set on SMN2 mRNA; 1 to 10 µM in the data set with MYB; 1 to 10 µM with HTT; 1 to 10 µM with Target C; 1 to 10 µM with HTT mRNA (setting [1]); 1 to 10 µM with HTT mRNA (setting [2]). Also, the IC50 in the data set with MYB mRNA (setting [3]) and with MYB mRNA (setting [4]) was 0.1 to 1 µM in each case. The AC50 in the data set with HTT mRNA (RT-qPCR) and in the data set with MYB mRNA (RT-qPCR) was 1 to 10 µM each time.
With `CN1CCC(c2ccc3nc(-c4cc5cn(C)nc5cc4O)ccc3n2)CC1` [Compound 142], the “Effect of Exemplary Compounds” value with K562 cells is “B (B represents 100-1000 nM)”. Also, the IC50 was less than 0.1 µM in the data set with SMN2 mRNA; 0.1 to 1 µM in the data set with MYB; 0.1 to 1 µM in the data set on HTT; 0.1 to 1 µM with Target C; 0.1 to 1 µM in the data set on HTT mRNA (setting [1]); 0.1 to 1 µM with HTT mRNA (setting [2]). The half-maximal inhibitory concentration (IC50) in the data set on MYB mRNA (setting [3]) and in the data set on MYB mRNA (setting [4]) was 0.1 to 1 µM each time. Besides, the half-maximal activity concentration (AC50) with HTT mRNA (RT-qPCR) and in the data set with MYB mRNA (RT-qPCR) was 0.1 to 1 µM each time.
For the compound `COc1cc2nn(C)cc2cc1-c1ccc2c(F)c(C3CCNCC3)ccc2n1` [Compound 143], the “Effect of Exemplary Compounds” value in the data set with K562 cells is given as “B (B represents 100-1000 nM)”. The IC50 is greater than 10 µM in the data set with SMN2 mRNA; greater than 10 µM in the data set with MYB; greater than 10 µM with HTT; 1 to 10 µM in the data set with Target C; greater than 10 µM with HTT mRNA (setting [1]); greater than 10 µM in the data set with HTT mRNA (setting [2]). For the same compound, the 50% inhibitory concentration (IC50) in the data set with MYB mRNA (setting [3]) and in the data set on MYB mRNA (setting [4]) was greater than 10 µM throughout. Further, the AC50 in the data set on HTT mRNA (RT-qPCR) and with MYB mRNA (RT-qPCR) was greater than 10 µM each time.
As for `Cn1cc2cc(-c3ccc4cc(C5CCNCC5)c(F)cc4n3)c(O)cc2n1` [Compound 144], the “Effect of Exemplary Compounds” value in the data set on K562 cells is “D (D represents greater than 10 μM in K562 cells)”. For the same compound, the IC50 with SMN2 mRNA, with MYB, in the data set with HTT, in the data set with Target C, in the data set with HTT mRNA (setting [1]) and in the data set with HTT mRNA (setting [2]) was greater than 10 µM throughout. Also, the IC50 in the data set on MYB mRNA (setting [3]) and in the data set with MYB mRNA (setting [4]) was greater than 10 µM throughout. The AC50 in the data set with HTT mRNA (RT-qPCR) and in the data set with MYB mRNA (RT-qPCR) was greater than 10 µM each time.
For `COc1cc2nn(C)cc2cc1-c1ccc2cc(C3CCNCC3)c(F)cc2n1` [Compound 145], the “Effect of Exemplary Compounds” value with K562 cells is on record as “D (D represents greater than 10 μM in K562 cells)”. In addition, the IC50 in the data set with SMN2 mRNA, in the data set with MYB, in the data set on HTT, with Target C, in the data set with HTT mRNA (setting [1]) and in the data set with HTT mRNA (setting [2]) was greater than 10 µM in each case. Also, the IC50 in the data set on MYB mRNA (setting [3]) and with MYB mRNA (setting [4]) was greater than 10 µM each time. The AC50 in the data set on HTT mRNA (RT-qPCR) and in the data set with MYB mRNA (RT-qPCR) was greater than 10 µM each time.
